From ChEMBL document CHEMBL3045449, “2-Bromo-1-ethoxy-(2,4-dichloro)styrene and 2,2-dibromo-1-ethoxy-(2,4-dichloro)styrenethe two impurities of bromfenvinphos; their identification, synthesis and full characterization” (J Pestic Sci, 2010)
Active and inactive are the calls of the source.

Experiments:
Type in all cases: functional, organism-based
Tetranychus urticae = test: Insecticidal activity against Tetranychus urticae (two-spotted spider mite)
Blatta orientalis = test: Insecticidal activity against Blatta orientalis
Musca domestica = test: Insecticidal activity against Musca domestica (house fly)
Sitophilus granarius = test: Insecticidal activity against Sitophilus granarius (granary weevil)

Measured: Activity

CCOC(=C(Br)Br)c1ccc(Cl)cc1Cl
inactive: Tetranychus urticae | Blatta orientalis | Musca domestica | Sitophilus granarius

CCOC(=CBr)c1ccc(Cl)cc1Cl (mixture of isomers)
inactive: Tetranychus urticae | Blatta orientalis | Musca domestica | Sitophilus granarius
